Experimental data published in patent US10259815B2, “Gabaergic ligands and their uses” (UWM Research Foundation, Inc., priority 2015, dated 2019).

Columns and labels:
Male Sprague-Dawley rats = test: von Frey filament test in spinal nerve ligated (SNL) rats; format: in vivo
Experimental: FIG. 11 is a graph of time versus withdrawal threshold for KRM-II-81, Gabapentin, and vehicle, showing the effect of KRM-II-81 on antihyperalgesia in the von Frey filament assay. Male Sprague-Dawley rats (n=5) were dosed i.p. either vehicle, KRM-II-81 (30 mg/kg), or gabapentin (50 mg/kg) and tested in the von Frey filament assay after undergoing SNL 90 days prior. Results were analyzed using ANOVA (Dunnett's test: *P<0.05).
The von Frey filament test is used to test for antihyperalgesia, or an increased sensitivity to pain. […] The von Frey filaments are used to apply pressure to the forelimbs of test subjects at set amounts. When pressure becomes too great, the forelimb is withdrawn and the amount of force applied recorded. The spinal nerve ligation induced hyperalgesia, reducing the amount of force a limb can take before being withdrawn.
Test compounds were given to test the effectiveness of combating the hyperalgesic effect of SNL. Male Sprague-Dawley rats went through SNL at least 90 days prior to the von Frey testing. Rats were first tested without given an injection to determine a baseline. Following baseline establishment, rats (n=5 for all groups) were dosed i.p. with vehicle (1% carboxymethyl cellulose), KRM-II-81 (30 mg/kg), or gabapentin (50 mg/kg). Subjects were then tested every hour for four hours to determine the antihyperalgesic effect of the test compounds. For testing, pressure using von Frey filaments was applied to the forelimb of the rat. Pressure was increased until the limb was withdrawn, and the amount of pressure was recorded.

Sprague Dawley male rats = test: Mechanical hyperalgesia (von Frey) in CFA-induced inflammatory pain rat model; format: in vivo
Experimental: Raw data (paw withdrawal threshold, expressed in g of von Frey filament) was converted to a maximal possible effect value according the following equation: % MPE=[(test threshold(g)−control threshold(g)/(pre-CFA threshold−control threshold)]×100.
Complete Freund's adjuvant (CFA) contains Mycobacterium butyricum, inducing inflammation and an increase in paw thickness. 0.1 mL of CFA was injected in the right hind paw of Sprague Dawley male rats under isoflurane anaesthesia.
Mechanical hyperalgesia. Mechanical hyperalgesia was measured 3 days after CFA treatment. Rats (n=6) were placed in elevated boxes with a mesh floor. Von Frey filaments (expressed in g) were applied perpendicularly to the hindpaws, starting with the lowest filament (1.4 g) then increased until hindpaw withdrawal was observed. After each measurement, rats received the next dose of drug (every 20 min) until the maximum threshold (26 g) was observed. For the antagonist study, rats were pretreated with the benzodiazepine site antagonist flumazenil (10 min) and then received the next dose of drug (every 20 min) until the pre-CFA threshold was observed.
Drugs. The following drugs were used: HZ166, KRM-II-18B, and KRM-II-81, and were dissolved in a mixture containing 20% Dimethyl sulfoxide (DMSO), 10% Emulphor-620 (Rhodia Inc.), and 70% of 0.9% saline. Flumazenil (purchased from Cayman Chemical Company, MI) was dissolved in a mixture containing 10% ethanol, 40% propylene glycol, and 50% sterile water. Midazolam (Akorn, Inc.) was dissolved in 0.9% saline. Doses were expressed as the weight of the drug in milligrams per kilogram of body weight and drugs were administered intraperitoneally.

[1] = molecular target: T1, α1, β3, γ2 GABA A receptor (Homo sapiens, UniProt P14867+P18507); test: FLIPR functional assay, α1 GABAA receptor subtype in HEK-293 cells; format: cell-based
T1 construct: host or cells: HEK-293, stably transfected
T1 sequence (P14867 28-456): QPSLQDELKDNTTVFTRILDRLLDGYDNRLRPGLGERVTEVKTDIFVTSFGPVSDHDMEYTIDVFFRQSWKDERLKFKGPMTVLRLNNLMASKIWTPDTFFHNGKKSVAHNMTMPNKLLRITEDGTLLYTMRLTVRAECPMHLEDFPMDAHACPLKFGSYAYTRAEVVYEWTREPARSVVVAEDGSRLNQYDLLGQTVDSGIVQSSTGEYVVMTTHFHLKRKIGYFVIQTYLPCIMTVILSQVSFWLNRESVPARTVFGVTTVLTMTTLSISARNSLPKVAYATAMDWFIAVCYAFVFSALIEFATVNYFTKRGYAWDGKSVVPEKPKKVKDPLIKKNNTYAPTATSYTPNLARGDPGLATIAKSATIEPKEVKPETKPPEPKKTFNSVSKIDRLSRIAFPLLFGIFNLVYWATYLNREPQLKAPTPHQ
T1 sequence (P28472 26-473 partner): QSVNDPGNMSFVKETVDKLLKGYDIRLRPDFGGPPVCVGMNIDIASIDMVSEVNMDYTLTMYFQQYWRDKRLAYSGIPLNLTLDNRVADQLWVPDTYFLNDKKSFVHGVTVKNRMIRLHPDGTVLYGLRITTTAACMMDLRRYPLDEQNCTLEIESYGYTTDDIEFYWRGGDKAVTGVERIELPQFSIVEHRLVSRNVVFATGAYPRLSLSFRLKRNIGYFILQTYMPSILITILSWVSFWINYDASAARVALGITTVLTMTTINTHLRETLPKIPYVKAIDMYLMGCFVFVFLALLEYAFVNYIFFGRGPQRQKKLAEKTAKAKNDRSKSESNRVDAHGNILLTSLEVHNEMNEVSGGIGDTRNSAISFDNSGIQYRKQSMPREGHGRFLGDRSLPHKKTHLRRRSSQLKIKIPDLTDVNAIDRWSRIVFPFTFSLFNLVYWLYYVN
T1 sequence (P18507 40-475): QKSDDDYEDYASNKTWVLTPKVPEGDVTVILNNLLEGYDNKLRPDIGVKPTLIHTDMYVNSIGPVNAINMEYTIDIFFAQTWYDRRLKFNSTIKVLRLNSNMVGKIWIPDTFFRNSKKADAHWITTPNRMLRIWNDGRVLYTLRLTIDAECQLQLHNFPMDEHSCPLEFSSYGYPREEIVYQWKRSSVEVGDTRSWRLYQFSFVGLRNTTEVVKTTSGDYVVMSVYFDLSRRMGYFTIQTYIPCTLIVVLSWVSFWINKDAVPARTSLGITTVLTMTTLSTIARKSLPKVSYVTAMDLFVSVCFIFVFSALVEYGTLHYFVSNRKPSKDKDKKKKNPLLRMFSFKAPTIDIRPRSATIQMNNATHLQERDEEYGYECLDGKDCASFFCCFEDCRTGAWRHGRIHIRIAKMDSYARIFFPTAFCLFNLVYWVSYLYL
Description: (§1) The FLIPR functional assay is used to determine the EC50 at the α1 and α3 GABAA receptor subtypes. A high EC50 for the α1 subtype would indicate a low chance of adverse effects, including sedation, ataxia, and muscle relaxation. A low α3 EC50 would indicate potential effectiveness as an anxiolytic, antihyperalgesic, and likely an anticonvulsant. See, for example, Liu et al. (Assay. Drug. Dev. Technol. 2008, 6, 781-6) and Joesch et al. (J. Biomol. Screen. 2008, 13, 218-28).
(§2) Compounds tested were synthesized internally and solubilized in DMSO at a 10 mM concentration. GABA was purchase from Sigma (#A2129) and prepared at 100 mM in water.
(§3) HEK-293 cells were stably transfected with the α1, β3, γ2 GABA A receptor subunits (GenBank accession numbers NM_000806.3, NM_000814.5, and NM_198904.1, respectively) or α3, β3, γ2 (NM_000808 for α3) where obtained from ChanTest Co. (Catalog # CT6216 and CT6218, respectively).
(§4) Cells were cultivated in Dulbeco's Modified Eagle's Medium (DMEM, Sigma D5796) supplemented with 10% Fetal Bovine Serum (FBS, Gibco 16000), 0.5 mg/mL Geneticin (Gibco), 0.04 mg/mL Hygromycin B (Gibco), 0.1 mg/mL Zeocin (Gibco) and 20 mM HEPES (Sigma). Cells were grown at 37° C. in a humidified atmosphere of 5% CO2. In the experiments described here frozen cells were used. For this purpose, cells were gown and maintained under confluency during 2-3 weeks and then frozen down at different cell densities using Recovery™ Cell Culture Freezing Medium (Gibco).
(§5) 18 hours prior to the experiment, cells were quickly thawed at 37° C. and seeded on Poly-D-Lys 384 plates (Corning 356663) at a density of 25,000 cells/well and in 25 μL of complete cell medium as described above.
(§6) Membrane potential changes induced by the flux of ions through the receptor were measured as relative fluorescence units (RFU) using the Fluorometric Imaging Plate Reader (FLIPR Tetra®, Molecular Devices) and the FLIPR Membrane Potential Blue Assay kit (Molecular Devices). Prior to the addition of the compounds the medium was removed and cells were loaded with 20 μL of dye prepared in assay buffer composed of Hank's Balanced Salt Solution (HBSS with Ca^+2 and Mg^+2; Gibco 14025) with 20 mM Hepes. After 1 hour of incubation at room temperature (RT), the plate was placed into the FLIPR instrument and experiments were run adding first 10 μL from the 1st addition plate (compound plate) and after a 3 minutes incubation adding 20 μL of the 2nd addition or agonist plate. The response to this last GABA addition was monitored for another 3 minutes. […]
(§7) Data Analysis. The difference between the maximum and the minimum (Max-Min) fluorescence reached during the first addition or read interval and the second read interval were used for data analysis (agonist and potentiation, respectively). […]

[2] = molecular target: T2, α3, β3, γ2 GABA A receptor (Homo sapiens, UniProt P18507+P34903); test: FLIPR functional assay, α3 GABAA receptor subtype in HEK-293 cells; format: cell-based; conditions: α3 Binding EC50, FLIPR membrane potential, potentiation of GABA EC20
T2 construct: host or cells: HEK-293, stably transfected
T2 sequence (P34903 29-492): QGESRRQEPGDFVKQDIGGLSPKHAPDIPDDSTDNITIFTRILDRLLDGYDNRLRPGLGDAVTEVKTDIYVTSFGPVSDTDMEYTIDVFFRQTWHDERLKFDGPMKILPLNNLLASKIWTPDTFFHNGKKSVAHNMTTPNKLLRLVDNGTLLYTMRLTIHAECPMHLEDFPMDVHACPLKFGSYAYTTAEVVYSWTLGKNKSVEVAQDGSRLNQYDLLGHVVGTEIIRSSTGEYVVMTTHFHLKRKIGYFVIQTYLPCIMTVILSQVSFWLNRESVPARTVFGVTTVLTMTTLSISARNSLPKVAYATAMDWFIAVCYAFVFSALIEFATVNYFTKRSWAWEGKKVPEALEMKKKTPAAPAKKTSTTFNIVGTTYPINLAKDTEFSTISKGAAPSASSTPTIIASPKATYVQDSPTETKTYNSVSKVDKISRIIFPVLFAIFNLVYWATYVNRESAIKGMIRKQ
T2 sequence (P28472 26-473 partner): as the sequence (P28472 26-473 partner) above
T2 sequence (P18507 40-475): as the sequence (P18507 40-475) above
Description: as §1, §2, §3, §4, §5, §6, §7

[3] = Liver microsomal stability, human; format: in vitro ADME; conditions: 37° C., 4 μM compound, 30 minutes
Experimental: (§8) In vitro metabolism studies were done in mouse, rat, human, and dogs cells (TABLE 2).
(§9) In vitro liver microsomal studies were completed to measure the stability of the compounds against degradation in various species' liver microsomes.
(§10) Compound was incubated in hepatic microsomes over a 30-minute incubation period at 37° C. Incubations both with and without NADPH (2 mM) were performed in a 96-well plate format. The reaction was initiated with the addition of substrate and was terminated by protein precipitation. All incubations were performed using a final substrate concentration of 4 μM in 50 mM sodium phosphate buffer, pH 7.4. The final organic solvent content was 0.5% acetonitrile and 0.02% DMSO. The amount of enzyme present was fixed at 1.11 mg/mL protein irrespective of the species of microsomes used. Samples were analyzed by LC/MS-MS to determine the percent loss in the NAPDH incubations relative to the NADPH free incubations.

[4] = Liver microsomal stability, dog; format: in vitro ADME; conditions: 37° C., 4 μM compound, 30 minutes
Experimental: as §8, §9, §10

[5] = Liver microsomal stability, mouse; format: in vitro ADME; conditions: 37° C., 4 μM compound, 30 minutes
Experimental: as §8, §9, §10

[6] = Liver microsomal stability, rat; format: in vitro ADME; conditions: 37° C., 4 μM compound, 30 minutes
Experimental: as §8, §9, §10

Male NIH Swiss mice = test: Rotorod assay (ataxia); format: in vivo; conditions: 30 mg/kg i.p., 30 minutes prior, 4 r.p.m., two minutes
Experimental: Male NIH Swiss mice (n=10) were dosed i.p. with vehicle (1% carboxymethyl cellulose) or one of the test compounds (10 or 30 mg/kg) 30 minutes prior to being tested on the rotorod. Mice were placed on a rod for two minutes at 4 revolutions per minute. […] Mice that fell twice failed the testing.
The rotorod assay (FIG. 5) is used to determine the ataxic effects, generally stemming from the α1 subtype, that compounds have in test subjects. Mice are trained to run on a slow, rotating cylinder for two minutes, and failure to stay on the rod may be due to ataxia. […] Each set of compounds were tested against a vehicle.
Male NIH Swiss mice (n=10/group) were trained on a rotorod (Ugo Basile 7650) at 4 r.p.m. for two minutes per training session prior to testing. On test day, mice were dosed i.p. with either vehicle (1% carboxymethyl cellulose) or one of the test compounds (10 or 30 mg/kg) 30 minutes prior to testing.

Which melting point does the source give for `Cc1ncoc1-c1ncn2c1CN=C(c1ccccc1)c1cc(Br)ccc1-2` here?
Its melting point is 236 to 238 °C.

With `Brc1ccc2c(c1)C(c1ccccc1)=NCc1c(-c3cnco3)ncn1-2` as the molecule, how does the melting point read?
The melting point was 225 to 227 °C.

For `C#Cc1ccc2c(c1)C(c1ccccc1F)=NCc1c(-c3ocnc3C)ncn1-2`, which melting point is on record?
The melting point was 145 to 147 °C.

Which melting point does the source give for `Cc1ncoc1-c1ncn2c1CN=C(c1ccccc1F)c1cc(Br)ccc1-2` here?
The melting point was 138 to 140 °C.

For `NCC1(CC(=O)O)CCCCC1` [gabapentin, reference compound], which “antihyperalgesic activity, von Frey after SNL” value (Male Sprague-Dawley rats; KRM-II-81 30 mg/kg, gabapentin 50 mg/kg i.p.) is on record?
Its value is “active as antihyperalgesics”.

What about the “pain threshold (force before removing paw)” value (Male Sprague-Dawley rats; from 1-2 hours, vehicle ˜5 g) of the same molecule?
Its value is about 12 g.

With `Cc1ncoc1-c1ncn2c1CN=C(c1ccccc1F)c1cc(C#C[Si](C)(C)C)ccc1-2` as the molecule, how does the melting point read?
Its melting point is 209 to 211 °C.

For `C#Cc1ccc2c(c1)C(c1ccccc1)=NCc1c(-c3ocnc3C)ncn1-2`, which melting point is on record?
The melting point was 228 to 230 °C.

For `Cc1ncc2n1-c1ccc(Cl)cc1C(c1ccccc1F)=NC2` [midazolam, reference compound], which “mechanical hyperalgesia in CFA-induced inflammatory pain” value (Sprague Dawley male rats; cumulative i.p. dosing, 3 days after CFA) is on record?
The value was “dose-dependently attenuated mechanical hyperalgesia”.

Which results are given for `Fc1ccccc1C1=NCc2c(-c3cnco3)ncn2-c2ccc(Br)cc21` [SH-I-085, 5-(8-Bromo-6-(2-fluorophenyl)-4H-benzo[f]imidazo[1,5-a][1,4]diazepin-3-yl)oxazole]?
EC50 [1]: > 20000 nM; EC50 [2]: 24.9 nM; Human Liver microsome stability (reported in % remaining) [3]: 62 % remaining; Dog Liver microsome stability (reported in % remaining) [4]: 77 % remaining; Mouse Liver microsome stability (reported in % remaining) [5]: 67 % remaining; Rat Liver microsome stability (reported in % remaining) [6]: 61 % remaining; melting point: 190 to 192 °C

Which melting point does the source give for `C#Cc1ccc2c(c1)C(c1ccccn1)=NCc1c(-c3ocnc3C)ncn1-2` here?
The melting point was 209 to 211 °C.

For `C[Si](C)(C)C#Cc1ccc2c(c1)C(c1ccccn1)=NCc1c(-c3cnco3)ncn1-2`, which melting point is on record?
The melting point was 208 to 210 °C.

Which “shift of PAM dose-effect curves by antagonist pretreatment” value (Sprague Dawley male rats; flumazenil pretreatment 10 min) does the source give for `CCOC(=O)c1ncn2c1CN(C)C(=O)c1cc(F)ccc1-2` [flumazenil, reference compound] here?
The value was “shifted the dose-effect curves of PAMs rightward”.

With `C#Cc1ccc2c(c1)C(c1ccccc1)=NCc1c(-c3cnco3)ncn1-2` [KRM-II-82, 5-(8-Ethynyl-6-phenyl-4H-benzo[f]imidazo[1,5-a][1,4]diazepin-3-yl)oxazole] as the molecule, how does the EC50 [1] read?
The EC50 was over 20000 nM.

And the EC50 [2]?
Its EC50 is 32.1 nM.

What about the “Human Liver microsome stability (reported in % remaining)” value [3] of the same molecule?
The value was 74 % remaining.

What about the “Dog Liver microsome stability (reported in % remaining)” value [4] of the same molecule?
Its value is 86 % remaining.

What about the “Mouse Liver microsome stability (reported in % remaining)” value [5] of the same molecule?
Its value is 73 % remaining.

And the “Rat Liver microsome stability (reported in % remaining)” value [6]?
The value was 72 % remaining.

What about the “rotorod performance at 30 mg/kg” value (Male NIH Swiss mice) of the same molecule?
Its value is “failed multiple times”.

For `Cc1ncoc1-c1ncn2c1CN=C(c1ccccn1)c1cc(Br)ccc1-2`, which melting point is on record?
Its melting point is 228 to 230 °C.

Which melting point does the source give for `Cc1ncoc1-c1ncn2c1CN=C(c1ccccc1)c1cc(C#C[Si](C)(C)C)ccc1-2` here?
Its melting point is 130 to 132 °C.
